Measurements reported in patent publication US20220378707A1, “1-(((2S,3S,4S)-3-ETHYL-4-FLUORO-5-OXOPYRROLIDIN-2-YL)METHOXY)-7-METHOXYISOQUINOLINE-6-CARBOXAMIDE COMBINATIONS AND ORAL DOSAGE FORMS” (Pfizer Inc., priority 2019, published 2022).
Entries after “also recorded” stand apart in the source; their conditions may differ.

Key:
[1] = test system: CD19+B cells and PBMC+(α-IgM and TCR ligands); assay: BioMAP BT system; format: cell-based, human; details: for Inhibition of biomarker readouts in the BT system / Increased biomarker readouts in the BT system: T cell dependent B cell activation; for Inhibition of biomarker readouts in the BT system: concentrations of FIGS. 12-14; for Increased biomarker readouts in the BT system: tofacitinib 37-1000 nM
Description: (§1) The BioMAP systems consist of human primary cell-based systems designed to model different aspects of the human body in an in vitro format. The 12 systems tested characterized the test compounds across a broad set of systems modeling various human disease states. BioMAP systems were constructed with one or more primary cell types from healthy human donors, with stimuli (such as cytokines or growth factors) added to capture relevant signaling networks that naturally occur in human tissue or pathological conditions. Vascular biology was modeled in both a Th1 (3C system) and a Th2 (4H system) inflammatory environment, as well as in a Th1 inflammatory state specific to arterial smooth muscle cells (CASM3C system). Additional systems recapitulated aspects of the systemic immune response that included monocyte-driven Th1 inflammation (LPS system) or T cell stimulation (SAg system), chronic Th1 inflammation driven by macrophage activation (IMphg system) and the T cell-dependent activation of B cells that occurs in germinal centers (BT system). The BE3C system (Th1) and the BF4T system (Th2) represented airway inflammation of the lung, while the MyoF system modeled myofibroblast-lung tissue remodeling. Lastly, skin biology was addressed in the KF3CT system modeled Th1 cutaneous inflammation and the HDF3CGF system modeled wound healing.
(§2) All cells were from a pool of multiple donors (n=2-6), commercially purchased and handled according to the recommendations of the manufacturers. Human blood derived CD14+ monocytes were differentiated into macrophages in vitro before being added to the IMphg system. Abbreviations were used as follows: human umbilical vein endothelial cells (HUVEC), peripheral blood mononuclear cells (PBMC), human neonatal dermal fibroblasts (HDFn), B cell receptor (BCR), T cell receptor (TCR) and toll-like receptor (TLR). Cell types and stimuli used in each system were as follows:
(§3) 3C system [HUVEC+(IL-1β, TNFα and IFNγ)]; 4H system [HUVEC+(IL-4 and histamine)]; LPS system [PBMC and HUVEC+LPS (TLR4 ligand)]; SAg system [PBMC and HUVEC+T cell receptor (TCR) ligands]; BT system [CD19+B cells and PBMC+(α-IgM and TCR ligands)]; BF4T system [bronchial epithelial cells and HDFn+(TNFα and IL-4)]; BE3C system [bronchial epithelial cells+(IL-1p, TNFα and IFNγ)]; CASM3C system [coronary artery smooth muscle cells+(IL-1p, TNFα and IFNγ)]; HDF3CGF system [HDFn+(IL-1β, TNFα, IFNγ, EGF, bFGF and PDGF-BB)]; KF3CT system [keratinocytes and HDFn+(IL-1β, TNFα and IFNγ)]; MyoF system [differentiated lung myofibroblasts+(TNFα and TGFβ)]; and IMphg system [HUVEC and M1 macrophages+Zymosan (TLR2 ligand)].
Systems were derived from either single cell types or co-culture systems. Adherent cell types were cultured in 96 or 384-well plates until confluence, followed by the addition of PBMC (SAg and LPS systems). The BT system consisted of CD19+B cells co-cultured with PBMC and stimulated with a BCR activator and low levels of TCR stimulation. Test agents were prepared in DMSO (final concentration <0.1%) and were added 1 hour before stimulation, and remained in culture for 24 hours or as otherwise indicated (48-hrs, MyoF system; 72-hrs, BT system (soluble readouts); 168-hrs, BT system (secreted IgG)). Each plate contained drug controls (e.g., legacy control test agent colchicine at 1.1 μM), negative controls (e.g., non-stimulated conditions) and vehicle controls (e.g., 0.1% DMSO) appropriate for each system. Direct ELISA was used to measure biomarker levels of cell-associated and cell membrane targets. Soluble factors from supernatants were quantified using either HTRF® detection, bead-based multiplex immunoassay or capture ELISA. Overt adverse effects of test agents on cell proliferation and viability (cytotoxicity) were detected by sulforhodamine B (SRB) staining, for adherent cells, and alamarBlue® reduction for cells in suspension. […]

[2] = test system: PBMC and HUVEC+T cell receptor (TCR) ligands; assay: BioMAP SAg system; format: cell-based, human; details: for Inhibition of biomarker readouts in the SAg system: T cell-driven Th1 vascular inflammation, concentrations of FIGS. 12-16
Description: as §1, §2, §3
Systems were derived from either single cell types or co-culture systems. Adherent cell types were cultured in 96 or 384-well plates until confluence, followed by the addition of PBMC (SAg and LPS systems). The BT system consisted of CD19+B cells co-cultured with PBMC and stimulated with a BCR activator and low levels of TCR stimulation. Test agents were prepared in DMSO (final concentration <0.1%) and were added 1 hour before stimulation, and remained in culture for 24 hours or as otherwise indicated (48-hrs, MyoF system; 72-hrs, BT system (soluble readouts); 168-hrs, BT system (secreted IgG)). Each plate contained drug controls (e.g., legacy control test agent colchicine at 1.1 μM), negative controls (e.g., non-stimulated conditions) and vehicle controls (e.g., 0.1% DMSO) appropriate for each system. Direct ELISA was used to measure biomarker levels of cell-associated and cell membrane targets. Soluble factors from supernatants were quantified using either HTRF® detection, bead-based multiplex immunoassay or capture ELISA. Overt adverse effects of test agents on cell proliferation and viability (cytotoxicity) were detected by sulforhodamine B (SRB) staining, for adherent cells, and alamarBlue® reduction for cells in suspension.

[3] = 13 week toxicology study in rat: exposure interaction of tofacitinib and PF-06650833; format: in vivo
[4] = test system: HUVEC+(IL-4 and histamine); assay: BioMAP 4H system; format: cell-based, human; details: Th2 vascular inflammation, tofacitinib 37-1000 nM
Description: (§4) The BioMAP systems consist of human primary cell-based systems designed to model different aspects of the human body in an in vitro format. The 12 systems tested characterized the test compounds across a broad set of systems modeling various human disease states. BioMAP systems were constructed with one or more primary cell types from healthy human donors, with stimuli (such as cytokines or growth factors) added to capture relevant signaling networks that naturally occur in human tissue or pathological conditions. Vascular biology was modeled in both a Th1 (3C system) and a Th2 (4H system) inflammatory environment, as well as in a Th1 inflammatory state specific to arterial smooth muscle cells (CASM3C system). […]
(§5) Systems were derived from either single cell types or co-culture systems. […] Test agents were prepared in DMSO (final concentration <0.1%) and were added 1 hour before stimulation, and remained in culture for 24 hours or as otherwise indicated (48-hrs, MyoF system; 72-hrs, BT system (soluble readouts); 168-hrs, BT system (secreted IgG)). […] Soluble factors from supernatants were quantified using either HTRF® detection, bead-based multiplex immunoassay or capture ELISA. Overt adverse effects of test agents on cell proliferation and viability (cytotoxicity) were detected by sulforhodamine B (SRB) staining, for adherent cells, and alamarBlue® reduction for cells in suspension.

[5] = test system: keratinocytes and HDFn+(IL-1β, TNFα and IFNγ); assay: BioMAP KF3CT system; format: cell-based, human; details: Th1 cutaneous inflammation; tofacitinib 37-1000 nM
Description: as §4, §5

Compound	Inhibition of biomarker readouts in the BT system ([1]; listed as 1-(((2S,3S,4S)-3-Ethyl-4-fluoro-5-oxopyrrolidin-2-yl)methoxy)-7-methoxyisoquinol)	Inhibition of biomarker readouts in the BT system ([1]; listed as 1-(((2S,3S,4S)-3-ethyl-4-fluoro-5-oxopyrrolidin-2-yl)methoxy)-7-methoxyisoquinol)	Inhibition of biomarker readouts in the SAg system [2]	Effects of 10 mg/kg tofacitinib on PF-06650833 exposure ([3]; female rats, 50 mg/kg PF-06650833)	Effects of 10 mg/kg tofacitinib on PF-06650833 exposure ([3]; male rats, 100 mg/kg PF-06650833)	Inhibition of biomarker readouts in the 4H system [4]	Inhibition of biomarker readouts in the 4H system ([4]; listed as Tofacitinib)	Inhibition of biomarker readouts in the BT system [1]	Inhibition of biomarker readouts in the BT system ([1]; listed as Tofacitinib)	Increased biomarker readouts in the BT system [1]	Increased biomarker readouts in the BT system ([1]; listed as Tofacitinib)	B cell proliferation in the BT system ([1]; concentrations of FIGS. 13-14)	Inhibition of biomarker readouts in the SAg system ([2]; listed as Tofacitinib)	Proliferation of T cells in the SAg system ([2]; concentrations of FIGS. 13-14)	Inhibition of biomarker readouts in the KF3CT system [5]
CC[C@@H]1[C@H](F)C(=O)N[C@@H]1COc1nccc2cc(C(N)=O)c(OC)cc12 [PF-06650833, 1-(((2S,3S,4S)-3-Ethyl-4-fluoro-5-oxopyrrolidin-2-yl)methoxy)-7-methoxyisoquinoline-6-carboxamide]	little effect; also recorded: modest inhibition of IL-6 and sIL-17F	sIL-17F and sTNFα	no activity	no significant effects	no significant effects										
C[C@@H]1CCN(C(=O)CC#N)C[C@@H]1N(C)c1ncnc2[nH]ccc12 [tofacitinib, 3-((3R,4R)-4-Methyl-3-(methyl(7H-pyrrolo[2,3-d]pyrimidin-4-yl)amino)piperidin-1-yl)-3-oxopropanenitrile]			CD38 and CD69 and modestly inhibited CD69			MCP-1 and Eto3 and VCAM-1 and P-selectin	active over all tested concentrations; also recorded: MCP-1, Eot3, VCAM-1, P-selectin	sIgG, sIL-17F, sIL-2, IL-6, and sTNFα; also recorded: strongly inhibited responses	active over all tested concentrations; also recorded: sIgG, sIL-17F, sIL-6, and sTNFα	increase in secreted IL-2	sIL-2	B cell anti-proliferative activity	CD38 and CD69	antiproliferative activity	MCP-1
